In the supplement of paper PMC13380429:

Experiments:
Conditions in all cases: 72 h
U2OS [1] = test: relative viability EC50 (midpoint between 100% and the lowest measured viability); higher = less toxic
Caco-2 [2] = test: as above
HepG2 [3] = test: as above
Calu-3 [4] = test: as above
U2OS [5] = test: drug sensitivity score (DSS) for viability; higher = more toxic; extreme values may be limits of the assay
Caco-2 [6] = test: as above
HepG2 [7] = test: as above
Calu-3 [8] = test: as above
U2OS [9] = test: cell viability relative to DMSO; higher = less toxic
Caco-2 [10] = test: as above
HepG2 [11] = test: as above
Calu-3 [12] = test: as above
Vero E6 [13] = test: relative viability EC50 (midpoint between 100% and the lowest measured viability); higher = less toxic
Vero E6 [14] = test: drug sensitivity score (DSS) for viability; higher = more toxic; extreme values may be limits of the assay
Vero E6 [15] = test: cell viability relative to DMSO; higher = less toxic

| Structure (SMILES) | relative viability EC50 (U2OS [1]) | relative viability EC50 (Caco-2 [2]) | relative viability EC50 (HepG2 [3]) | relative viability EC50 (Calu-3 [4]) | drug sensitivity score (U2OS [5]) | drug sensitivity score (Caco-2 [6]) | drug sensitivity score (HepG2 [7]) | drug sensitivity score (Calu-3 [8]) | cell viability (U2OS [9]; 1 nM) | cell viability (U2OS [9]; 10 nM) | cell viability (U2OS [9]; 100 nM) | cell viability (U2OS [9]; 1000 nM) | cell viability (U2OS [9]; 10000 nM) | cell viability (Caco-2 [10]; 1 nM) | cell viability (Caco-2 [10]; 10 nM) | cell viability (Caco-2 [10]; 100 nM) | cell viability (Caco-2 [10]; 1000 nM) | cell viability (Caco-2 [10]; 10000 nM) | cell viability (HepG2 [11]; 1 nM) | cell viability (HepG2 [11]; 10 nM) | cell viability (HepG2 [11]; 100 nM) | cell viability (HepG2 [11]; 1000 nM) | cell viability (HepG2 [11]; 10000 nM) | cell viability (Calu-3 [12]; 1 nM) | cell viability (Calu-3 [12]; 10 nM) | cell viability (Calu-3 [12]; 100 nM) | cell viability (Calu-3 [12]; 1000 nM) | cell viability (Calu-3 [12]; 10000 nM) | relative viability EC50 (Vero E6 [13]) | drug sensitivity score (Vero E6 [14]) | cell viability (Vero E6 [15]; 1 nM) | cell viability (Vero E6 [15]; 10 nM) | cell viability (Vero E6 [15]; 100 nM) | cell viability (Vero E6 [15]; 1000 nM) | cell viability (Vero E6 [15]; 10000 nM) |
| --- | --- | --- | --- | --- | --- | --- | --- | --- | --- | --- | --- | --- | --- | --- | --- | --- | --- | --- | --- | --- | --- | --- | --- | --- | --- | --- | --- | --- | --- | --- | --- | --- | --- | --- | --- |
| Oc1cc(O)c(Cl)cn1 [gimeracil] | > 10 µM | > 10 µM | > 10 µM | > 10 µM | 0 | 0 | 0.2 | 0 | 100% | 100% | 104% | 98.5% | 104% | 97.8% | 92.7% | 97.7% | 95.8% | 98.1% | 105% | 106% | 98.3% | 96.2% | 87.2% | 107% | 105% | 104% | 98.3% | 92.4% | – | – | – | – | – | – | – |
| OC(c1ccc(-c2ccc(CN3CCN(Cc4ccncc4)CC3)cc2)c(F)c1)(C(F)(F)F)C(F)(F)F [SR-2211] | > 10 µM | > 10 µM | – | > 10 µM | 0 | 2.4 | 2.9 | 0 | 98.4% | 106% | 102% | 102% | 95.7% | 113% | 95.4% | 101% | 86.4% | 76.1% | 94.2% | 101% | 98.8% | 95.4% | 58% | 101% | 101% | 93.6% | 95.9% | 95.5% | > 10 µM | 0 | 103% | 99.8% | 103% | 100% | 103% |
| O=C(O)CCC(=O)Nc1ccc(S(=O)(=O)Nc2nccs2)cc1 [succinylsulfathiazole] | > 10 µM | > 10 µM | – | > 10 µM | 0 | 0 | – | 0 | 95.3% | 100% | 95.7% | 99.9% | 104% | 93.9% | 100% | 89.6% | 104% | 102% | – | – | – | – | – | 94% | 96.2% | 96.1% | 112% | 108% | > 10 µM | 0 | 97.8% | 97.3% | 98.7% | 92.1% | 112% |
| CCCN1C[C@H](CSC)C[C@@H]2c3cccc4[nH]cc(c34)C[C@H]21 [pergolide] | > 10 µM | > 10 µM | – | > 10 µM | 0 | 0 | – | 0 | 97.3% | 102% | 100% | 102% | 97.3% | 93.2% | 93% | 99.5% | 96.4% | 100% | – | – | – | – | – | 89.8% | 105% | 104% | 99.7% | 101% | > 10 µM | 0 | 95.9% | 96.5% | 95.6% | 90% | 96.4% |
| Cc1cccc(C)c1NC(=O)[C@@H](C)N [tocainide] | > 10 µM | > 10 µM | > 10 µM | > 10 µM | 0 | 0 | 0 | 0 | 100% | 102% | 99.2% | 104% | 98.5% | 96.8% | 95.8% | 97.5% | 101% | 95.5% | 107% | 102% | 91.5% | 94.2% | 95.3% | 105% | 92.3% | 90% | 108% | 103% | – | – | – | – | – | – | – |
| CCOCCn1c(C2CCN(CCc3ccc(C(C)(C)C(=O)O)cc3)CC2)nc2ccccc21 [bilastine] | > 10 µM | > 10 µM | > 10 µM | > 10 µM | 0 | 3.1 | 0 | 0 | 96.6% | 98.2% | 103% | 103% | 95.7% | 102% | 87.5% | 85.6% | 92.5% | 87.8% | 94.3% | 96% | 104% | 97.6% | 100% | 98.1% | 106% | 93.5% | 97.8% | 99.5% | – | – | – | – | – | – | – |
| O=c1ccc2ccc(OCCCCN3CCN(c4cccc5sccc45)CC3)cc2[nH]1 [brexpiprazole] | > 10 µM | > 10 µM | – | > 10 µM | 0.1 | 0 | 3.5 | 0 | 97.6% | 99% | 95.6% | 101% | 86.6% | 91.7% | 96.7% | 87.3% | 98.1% | 87.5% | 100% | 96.3% | 96% | 92% | 56.8% | 95.5% | 85% | 96% | 91.6% | 104% | > 10 µM | 0 | 99.1% | 97.5% | 94.5% | 94.5% | 94.3% |
| Nc1ccncc1 [dalfampridine] | – | > 10 µM | – | > 10 µM | – | 0 | – | 0 | – | – | – | – | – | 102% | 108% | 99.1% | 106% | 96% | – | – | – | – | – | 102% | 104% | 90.9% | 99% | 100% | > 10 µM | 0 | 107% | 102% | 101% | 101% | 98.9% |
